This is an account of results in patent US4906467A, “Novel, long-duration treatment for glaucoma” (priority 1988, dated 1990).

The conditions of data set [1]: rabbit, in vivo.
The subject of data set [2] is RABBIT INTRAOCULAR PRESSURE
Description: Effect of topical 12(R)-HETE on rabbit intraocular pressure (pneumotometer). In kind it is in vivo. Particulars: for intraocular pressure, difference from baseline (mean ± SEM): n = 6. As to the method:
A solution of 12(R)-HETE was prepared by dissolving 50 μg 12(R)-HETE in 1 ml ethanol and diluting to give aliquots containing 0.5 or 1.0 μg 12(R)-HETE in each of several containers. These could be frozen at -78° C. with or without ethanol. Before use, aliquots were warmed, ethanol was removed (if necessary) and sterile phosphate buffered saline (PBS) was added to give a concentration of 0.01 mg 12(R)-HETE/ml PBS. Rabbits were treated by administering 10 to 50 μl of 12(R)-HETE in PBS topically to the each eye of a 1.5 kg rabbit. Control rabbits were treated with PBS alone. Intraocular pressure was measured on a conventional pneumotometer, using a sensor size appropriate for the eye to be measured.
The pressure in each eye of the rabbits was measured several times before beginning the experiment to establish a baseline. Pressure was measured again just after administration of the test compound, then every 30 minutes for 180 minutes, daily for six days, and again on days 9 and 11. […] Table 1 illustrates the mean and standard error of the pressure difference from baseline in six animals treated with 0.5 μg 12(R)-HETE (per eye) compared with three controls, only one of which was tested after the first day.

A short description of data set [3]: Ocular side effects after topical administration in vivo (corneal thickness, clarity, side effects).
Data set [4] has as its system intraocular pressure. Briefly: Intraocular pressure after topical 12(R)-HETE (general statement). In kind it is in vivo. As to conditions: effective dose.
For data set [5], the system named is ciliary body Na^+ -K^+ -ATPase. As to conditions: cited from earlier work.
Data set [6] deals with corneal epithelial Na^+ -K^+ -ATPase. As to conditions: corneal epithelium, in vitro; cited from earlier work.
The next data set deals with Na^+ -K^+ -ATPases. Particulars: cited from earlier work.
The subject of data set [7] is intraocular pressure. Particulars: cited from earlier work; for effect on intraocular pressure: in vivo.
A further data set relates to aqueous humor formation. As to conditions: in vivo; cited from earlier work.
The conditions of data set [8]: in vivo; cited from earlier work.

“Also recorded” adds a separate entry of the source.

With `CCCCC/C=C\C[C@@H](O)/C=C/C=C\C/C=C\CCC[14C](=O)O` [1-(^14 C)-12(R)-HETE], the “eye tissues with highest levels of 12(R)-HETE and its metabolites” value in [1] is “The highest levels were found in the cornea, ciliary bodies and trabecular meshwork”.
`CCCCCC=CC[C@@H](O)C=CC=CCC=CCCCC(=O)O` [12(R)-HETE, 12(R)-hydroxy-eicosa-5,8,10,14-tetraenoic acid]: the “intraocular pressure, difference from baseline (mean ± SEM)” value is recorded as -0.6 ± 0.9 mm Hg in [2] (0 min., 0.5 μg per eye topical); -3.5 ± 1.9 mm Hg in [2] (30 min, 0.5 μg per eye topical); -5.6 ± 1.4 mm Hg in data set [2] (60 min, 0.5 μg per eye topical); -5.6 ± 1.3 mm Hg in data set [2] (90 min, 0.5 μg per eye topical); -7.2 ± 1.6 mm Hg in data set [2] (120 min, 0.5 μg per eye topical); -4.7 ± 2.8 mm Hg in data set [2] (150 min, 0.5 μg per eye topical). In addition, the “intraocular pressure, difference from baseline (mean ± SEM)” value in [2] (180 min, 0.5 μg per eye topical) is recorded as -4.1 ± 2.2 mm Hg; in data set [2] (2 days, 0.5 μg per eye topical), -3.2 ± 2.1 mm Hg; in data set [2] (3 days, 0.5 μg per eye topical) it was -4.2 ± 1.2 mm Hg; in data set [2] (4 days, 0.5 μg per eye topical), -4.2 ± 1.0 mm Hg; in data set [2] (5 days, 0.5 μg per eye topical) it was -5.2 ± 2.1 mm Hg; in data set [2] (6 days, 0.5 μg per eye topical), -6.0 + 1.2 mm Hg. The “intraocular pressure, difference from baseline (mean ± SEM)” value in [2] (9 days, 0.5 μg per eye topical) is listed as -7.4 ± 1.7 mm Hg; in data set [2] (11 days, 0.5 μg per eye topical), -2.9 ± 1.5 mm Hg; in data set [2] (Base (before dosing), 0.5 μg per eye, baseline 25.6 mm), 0.0 ± 1.4 mm Hg. Besides, the “onset and duration of intraocular pressure drop” value in data set [2] (0.5 μg per eye, rabbits, Table 1) was “short onset, sustained pressure drop”. For the same compound, in [2] (0.5 μg per eye, vs PBS controls), the “intraocular pressure in test animals compared with control animals” value is given as “significantly below the pressure in control animals at all times after administration of the test drug”. Moreover, the untoward side effects result in data set [3] (doses up to 1 μg per eye) is given as “no untoward side effects have been observed”. Moreover, in data set [3] (topical, in vivo), the corneal clarity result is “no loss of clarity”. Further, the corneal thickness result in data set [3] (topical, in vivo) is “no increase in corneal thickness”. In addition, the “other observable side effects” value in data set [3] (topical, in vivo) is “no other observable side effects”. The “duration of intraocular pressure decrease” value in the data set on intraocular pressure [4] is “a decrease in intraocular pressure for a period of several days; also recorded: remains depressed for several days”. Moreover, the “onset of intraocular pressure drop” value with intraocular pressure [4] is “drops within a few minutes”. Also, the “inhibition of Na+-K+-ATPase” value in data set [5] was “only the R isomer exhibits a significant inhibition of enzyme activity; also recorded: inhibit Na^+ -K^+ -ATPase isolated from the ciliary body”; in [6], “only the R isomer exhibits a significant inhibition of enzyme activity; also recorded: inhibit Na^+ -K^+ -ATPase isolated from the ciliary body and the corneal epithelium; also recorded: inhibit Na^+ -K^+ -ATPase in the corneal epithelium in vitro”. Besides, in the data set with Na^+ -K^+ -ATPases, the “inhibition of Na+-K+-ATPases” value is “inhibitor of Na^+ -K^+ -ATPases”.
On to `CCCCCC=CC[C@H](O)C=CC=CCC=CCCCC(=O)O` [12(S)-HETE, reference compound], for which the “inhibition of Na+-K+-ATPase” value in data set [5] and in data set [6] was “only the R isomer exhibits a significant inhibition of enzyme activity” throughout.
Regarding `CC(=O)OC1CN2CCC1CC2` (stereo not drawn) [Aceclidine], the “effectiveness in reducing intraocular pressure compared with pilocarpine” value in the data set with intraocular pressure [7] (glaucoma) is “approximately as effective as pilocarpine in reducing intraocular pressure”.
On to `CNC[C@H](O)c1ccc(O)c(O)c1` [Epinephrine], for which the “effect on intraocular pressure” value in the data set on intraocular pressure [7] is on record as “reducing the intraocular pressure”. Moreover, the “effect on production of aqueous humor” value in the data set with aqueous humor formation is listed as “decreases production of aqueous humor”.
Consider `CC[C@@H]1C(=O)OC[C@@H]1Cc1cncn1C` [Pilocarpine], for which the “effect on intraocular pressure” value in the data set on intraocular pressure [7] is recorded as “a transitory rise in intraocular pressure, followed by a more persistent fall”. Moreover, the “effect on pupil size / ciliary body tone / vision” value in data set [8] is reported as “pupillary constriction, spasm of accomodation”.
In the case of `CC(C)(C)NC[C@H](O)COc1nsnc1N1CCOCC1` [Timolol], in the data set with intraocular pressure [7] (glaucoma), the “duration of beneficial effect” value is given as “about 7 hours”. Further, in the data set on intraocular pressure [7], the “effect on intraocular pressure” value was “effective in reducing intraocular pressure”. Also, the “effect on production of aqueous humor” value in the data set with aqueous humor formation is reported as “appears to act by reducing the production of aqueous humor”. Also, the side effects result in [8] was “The side effects are minimal, although systemic absorption of the drug can occur, leading to slowing of the heart”.
As for `CC(=O)Nc1nnc(S(N)(=O)=O)s1` [acetazolamide], the “effect on intraocular pressure” value in the data set with intraocular pressure [7] is given as “lowering intraocular pressure in patients with glaucoma”. Also, the “effect on production of aqueous humor” value with aqueous humor formation is “reduces the rate of aqueous humor formation”.
On to `CNCC(O)c1ccc(OC(=O)C(C)(C)C)c(OC(=O)C(C)(C)C)c1` (stereo not drawn) [dipivalyl epinephrine], for which the “effect on intraocular pressure” value in the data set on intraocular pressure [7] was “reducing the intraocular pressure”. For the same compound, the “effect on production of aqueous humor” value in the data set on aqueous humor formation is on record as “decreases production of aqueous humor”.
Consider `C[C@@H]1O[C@@H](O[C@H]2C[C@@H](O)[C@]3(CO)[C@H]4[C@H](O)C[C@]5(C)[C@@H](C6=CC(=O)OC6)CC[C@]5(O)[C@@H]4CC[C@]3(O)C2)[C@H](O)[C@H](O)[C@H]1O` [ouabain], for which the “inhibition of Na+-K+-ATPases” value with Na^+ -K^+ -ATPases is recorded as “inhibit Na^+ -K^+ -ATPases”. Moreover, in the data set on intraocular pressure [7], the “effect on intraocular pressure” value is reported as “decrease intraocular pressure”. In addition, the side effects result in data set [8] was “severe side effects including keratitis and inflammation of the cornea”.
